Measured values published in PubChem BioAssay (NCI).
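Each compound was tested at five concentrations against cells in 96-well plates for 48 hours. GI50 marks 50% less growth. TGI: concentration producing complete growth inhibition.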

What was measured:
Experiment in all cases: NCI anticancer screen, dose series, 48 h
SNB-19 CNS = system: SNB-19 CNS
HL-60(TB) leukemia = system: HL-60(TB) leukemia
SF-268 CNS = system: SF-268 CNS
CCRF-CEM leukemia = system: CCRF-CEM leukemia
NCI-H460 lung = system: NCI-H460 lung
NCI-H226 lung = system: NCI-H226 lung
SK-MEL-2 melanoma = system: SK-MEL-2 melanoma
CAKI-1 renal = system: CAKI-1 renal
UACC-257 melanoma = system: UACC-257 melanoma
HCC-2998 colon = system: HCC-2998 colon

| SMILES | TGI (SNB-19 CNS) [µM] | TGI (HL-60(TB) leukemia) [µM] | TGI (SF-268 CNS) [µM] | TGI (CCRF-CEM leukemia) [µM] | TGI (NCI-H460 lung) [µM] | TGI (NCI-H226 lung) [µM] | TGI (SK-MEL-2 melanoma) [µM] | TGI (CAKI-1 renal) [µM] | TGI (UACC-257 melanoma) [µM] | TGI (HCC-2998 colon) [µM] | GI50 (SNB-19 CNS) [µM] | GI50 (HL-60(TB) leukemia) [µM] | GI50 (SF-268 CNS) [µM] | GI50 (CCRF-CEM leukemia) [µM] | GI50 (NCI-H460 lung) [µM] | GI50 (NCI-H226 lung) [µM] | GI50 (SK-MEL-2 melanoma) [µM] | GI50 (CAKI-1 renal) [µM] | GI50 (UACC-257 melanoma) [µM] | GI50 (HCC-2998 colon) [µM] |
| --- | --- | --- | --- | --- | --- | --- | --- | --- | --- | --- | --- | --- | --- | --- | --- | --- | --- | --- | --- | --- |
| NP(=O)(Oc1c2occc2cc2ccc(=O)oc12)N(CCCl)CCCl (stereo not given) | > 100 | > 100 | > 100 | > 100 | > 100 | > 100 | > 100 | > 100 | > 100 | > 100 | – | – | – | – | – | – | – | – | – | – |
| O=C(N/N=C/c1ccc(Cl)cc1)c1ccc(C(F)(F)F)nc1Nc1cccc(C(F)(F)F)c1 | 13 | 5.69 | 8.29 | 3.62 | 6.6 | 6.82 | 7.91 | 9.88 | 8.99 | 17.3 | 2.61 | 1.45 | 1.14 | 0.344 | 1.66 | 2.21 | 2.58 | 2.37 | 2.43 | 4.3 |
| COc1ccc(/C=C/c2ccnc3ccccc23)c(OC)c1 | > 10 | 6.91 | > 10 | > 10 | > 10 | > 10 | > 10 | > 10 | > 10 | > 10 | – | – | – | – | – | – | – | – | – | – |
| COc1ccc(C(=O)C(C(=O)CCC(=O)Nc2cccc(Cl)c2)c2ccc(OC)cc2)cc1 (stereo not given) | > 100 | > 100 | > 100 | > 100 | > 100 | > 100 | > 100 | > 100 | > 100 | > 100 | – | – | – | – | – | – | – | – | – | – |
| CC(C)(C)c1ccc2c(c1)S(=O)(=O)Nc1ccccc1NS(=O)(=O)c1cc(C(C)(C)C)ccc1OCCOCCOCCO2 | > 100 | > 100 | > 100 | > 100 | > 100 | > 100 | > 100 | > 100 | > 100 | > 100 | – | – | – | – | – | – | – | – | – | – |
| OC[C@H]1CCCC1O (stereo not given in full) | > 100 | > 100 | > 100 | > 100 | > 100 | > 100 | > 100 | > 100 | > 100 | > 100 | – | – | – | – | – | – | – | – | – | – |
| N=C1C(c2nc3ccccc3s2)=C(O)CN1c1cc(C(F)(F)F)ccc1Cl | > 100 | 30.2 | > 100 | > 100 | 77.9 | 28.5 | > 100 | 40.4 | 46.1 | 16.3 | 60.6 | 5.75 | 28.8 | 21.3 | 13.3 | 2.75 | 29.8 | 4.7 | 7.65 | 2.73 |
